# Measured values published in PMC7031696 (Cell chemical biology, 2019).
# pIC50: −log10 of the molar value. Where two headings read alike, the source gives them in different places.
# How the values were obtained:
# [1] = system: 3D7-MR4 trophozoite parasite-infected RBCs; assay: Metabolomic profiling (hydrophilic metabolite changes, UHPLC-MS); type: cell-based, Plasmodium falciparum
# [2] = system: asynchronous 3D7-A10 parasite cultures; assay: Standard 72-h exposure asexual blood stage susceptibility assay (IC50^72h); type: cell-based, Plasmodium falciparum; details: Plasmodium falciparum, 3D7, 72 h, read-out: Overall (72hr assay) Mean IC50 (IC50^72h)
# [3] = system: Plasmodium falciparum 3D7-A10 parasites; assay: Stage specificity assay (8-h exposure of synchronized stages, IC50^8h); type: cell-based; details: Plasmodium falciparum
compound,measurement,setting,value
COc1ccc(C2c3ccc4ccccc4c3Oc3ncn(CCCN(C)C)c(=N)c32)cc1 (centres unmarked) [MMV667491],peptide levels (hemoglobin catabolism signature),"[1]; 10 × IC50^72h, 2.5 hr, trophozoites",decreased peptide levels
same,Log2(fold changes) 3-phosphoglycerate,"[1]; metabolite 3-phosphoglycerate, log2 fold change",0.2589
same,Log2(fold changes) 4-Pyridoxic acid,"[1]; metabolite 4-Pyridoxic acid, log2 fold change",0.1545
same,Log2(fold changes) 4-aminobutyrate,"[1]; metabolite 4-aminobutyrate, log2 fold change",-0.0143
same,Log2(fold changes) 4-phosphopantetheine,"[1]; metabolite 4-phosphopantetheine, log2 fold change",0.0000
same,Log2(fold changes) 4-phosphopantothenate,"[1]; metabolite 4-phosphopantothenate, log2 fold change",-0.5959
same,Log2(fold changes) 5-aminopentanoic acid,"[1]; metabolite 5-aminopentanoic acid, log2 fold change",0.0000
same,Log2(fold changes) 5-methyl-THF,"[1]; metabolite 5-methyl-THF, log2 fold change",0.0000
same,Log2(fold changes) 5-phosphoribosyl-1-pyrophosphate,"[1]; metabolite 5-phosphoribosyl-1-pyrophosphate, log2 fold change",0.0000
same,Log2(fold changes) 6-phospho-D-gluconate,"[1]; metabolite 6-phospho-D-gluconate, log2 fold change",-0.3071
same,Log2(fold change) HVDD,[1]; metabolite HVDD,-3.1004
same,Log2(fold change) Hydroxyisocaproic acid,[1]; metabolite Hydroxyisocaproic acid,0.0000
same,Log2(fold change) IDP,[1]; metabolite IDP,0.0000
same,Log2(fold change) IMP,[1]; metabolite IMP,-0.4029
same,Log2(fold change) Inositol,[1]; metabolite Inositol,0.0000
same,Log2(fold change) Isopentyl-PP,[1]; metabolite Isopentyl-PP,-0.4741
same,Log2(fold change) L-arginino-succinate,[1]; metabolite L-arginino-succinate,1.0249
same,Log2(fold change) LD,[1]; metabolite LD,0.5039
same,Log2(fold change) Myristoyl/tetradecanoyl-CoA,[1]; metabolite Myristoyl/tetradecanoyl-CoA,0.0000
same,Log2(fold change) N-Acetyl-L-alanine,[1]; metabolite N-Acetyl-L-alanine,-0.5066
same,Log2(fold change) N-acetyl-L-ornithine,[1]; metabolite N-acetyl-L-ornithine,-0.0359
same,Log2(fold change) N-acetyl-glucosamine-1/6-phosphate,[1]; metabolite N-acetyl-glucosamine-1/6-phosphate,-0.2210
same,Log2(fold change) N-acetyl-glutamate,[1]; metabolite N-acetyl-glutamate,-0.3035
same,Log2(fold change) N-acetyl-glutamine,[1]; metabolite N-acetyl-glutamine,2.2691
same,Log2(fold change) N-carbamoyl-L-aspartate,[1]; metabolite N-carbamoyl-L-aspartate,-0.9439
same,Log2(fold change) NAD+,[1]; metabolite NAD+,-0.1377
same,Log2(fold change) NADH,[1]; metabolite NADH,0.2776
same,Log2(fold change) NADP+,[1]; metabolite NADP+,0.1452
same,Log2(fold change) NADPH,[1]; metabolite NADPH,0.1884
same,Log2(fold change) O-acetyl-L-serine,[1]; metabolite O-acetyl-L-serine,-0.0049
same,Log2(fold change) Octoluse 8/1P,[1]; metabolite Octoluse 8/1P,0.3908
same,Log2(fold change) Octoluse Bisphosphate,[1]; metabolite Octoluse Bisphosphate,1.4853
same,Log2(fold change) PD,[1]; metabolite PD,-2.5358
same,Log2(fold change) PE,[1]; metabolite PE,-0.3826
same,Log2(fold change) PEE,[1]; metabolite PEE,-0.0417
same,Log2(fold change) PEEK,[1]; metabolite PEEK,0.3987
same,Log2(fold change) PVNF,[1]; metabolite PVNF,-3.7257
same,Log2(fold change) Pyroglutamic acid,[1]; metabolite Pyroglutamic acid,-0.2992
same,Log2(fold change) Pyrophosphate,[1]; metabolite Pyrophosphate,0.0000
same,Log2(fold change) Ribose-5-phosphate,[1]; metabolite Ribose-5-phosphate,-0.2620
same,Log2(fold change) S-adenosyl-L-homocysteine,[1]; metabolite S-adenosyl-L-homocysteine,0.0103
same,Log2(fold change) S-adenosyl-L-methioninamine,[1]; metabolite S-adenosyl-L-methioninamine,-2.2715
same,Log2(fold change) S-adenosyl-L-methionine,[1]; metabolite S-adenosyl-L-methionine,0.0000
same,Log2(fold change) S-methyl-5'-thioadenosine,[1]; metabolite S-methyl-5'-thioadenosine,1.0471
same,Log2(fold change) SD,[1]; metabolite SD,-1.2290
same,Log2(fold change) SDL,[1]; metabolite SDL,0.0000
same,Log2(fold change) SID,[1]; metabolite SID,-0.4398
same,Log2(fold change) Sedoheptulose bisphosphate,[1]; metabolite Sedoheptulose bisphosphate,1.3696
same,Log2(fold change) Thiamine pyrophosphate,[1]; metabolite Thiamine pyrophosphate,-0.0845
same,Log2(fold changes) UDP-D-glucose,"[1]; metabolite UDP-D-glucose, log2 fold change",0.2535
same,Log2(fold changes) UDP-D-glucuronate,"[1]; metabolite UDP-D-glucuronate, log2 fold change",0.0929
same,Log2(fold changes) UDP-N-acetyl-glucosamine,"[1]; metabolite UDP-N-acetyl-glucosamine, log2 fold change",-0.0110
same,Log2(fold changes) UDP,"[1]; metabolite UDP, log2 fold change",-0.5582
same,Log2(fold changes) UMP,"[1]; metabolite UMP, log2 fold change",-1.0091
same,Log2(fold changes) UTP,"[1]; metabolite UTP, log2 fold change",0.0000
same,Log2(fold change) hydroxyphenylpyruvate,[1]; metabolite hydroxyphenylpyruvate,0.0000
same,Log2(fold change) hydroxyproline/Aminolevulinate,[1]; metabolite hydroxyproline/Aminolevulinate,-0.0313
same,Log2(fold change) hypoxanthine,[1]; metabolite hypoxanthine,0.1226
same,Log2(fold change) indole,[1]; metabolite indole,0.0000
same,Log2(fold change) inosine,[1]; metabolite inosine,0.0977
same,Log2(fold change) isoleucine,[1]; metabolite isoleucine,0.0000
same,Log2(fold change) lactate,[1]; metabolite lactate,-0.2958
same,Log2(fold change) leucine,[1]; metabolite leucine,0.0000
same,Log2(fold change) lysine,[1]; metabolite lysine,-0.5255
same,Log2(fold change) malate,[1]; metabolite malate,-0.2587
same,Log2(fold change) maleic acid,[1]; metabolite maleic acid,-0.3091
same,Log2(fold change) methionine,[1]; metabolite methionine,0.3155
same,Log2(fold change) myo-inositol,[1]; metabolite myo-inositol,-0.2765
same,Log2(fold change) nicotinamide mononucleotide,[1]; metabolite nicotinamide mononucleotide,-0.3204
same,Log2(fold change) nicotinate,[1]; metabolite nicotinate,-0.1938
same,Log2(fold change) ornithine,[1]; metabolite ornithine,0.1211
same,Log2(fold change) orotate,[1]; metabolite orotate,-0.0965
same,Log2(fold change) orotidine-5'-phosphate,[1]; metabolite orotidine-5'-phosphate,-2.6245
same,Log2(fold change) oxaloacetate,[1]; metabolite oxaloacetate,-0.0776
same,Log2(fold change) p-aminobenzoate,[1]; metabolite p-aminobenzoate,0.0000
same,Log2(fold change) p-hydroxybenzoate,[1]; metabolite p-hydroxybenzoate,0.0000
same,Log2(fold change) pantothenate,[1]; metabolite pantothenate,0.1007
same,Log2(fold change) phenylalanine,[1]; metabolite phenylalanine,-0.2555
same,Log2(fold change) phenylpyruvate,[1]; metabolite phenylpyruvate,0.0000
same,Log2(fold change) phosphoenolpyruvate,[1]; metabolite phosphoenolpyruvate,0.7161
same,Log2(fold change) prephenate,[1]; metabolite prephenate,-0.9019
same,Log2(fold change) proline,[1]; metabolite proline,-0.2246
same,Log2(fold change) pyridoxine,[1]; metabolite pyridoxine,-0.1003
same,Log2(fold change) pyruvate,[1]; metabolite pyruvate,-0.3220
same,Log2(fold change) riboflavin,[1]; metabolite riboflavin,0.6538
same,Log2(fold change) ribose,[1]; metabolite ribose,0.3285
same,Log2(fold change) ribose-phosphate,[1]; metabolite ribose-phosphate,-0.4272
same,Log2(fold change) ribulose-5-phosphate,[1]; metabolite ribulose-5-phosphate,-0.4317
same,Log2(fold change) serine,[1]; metabolite serine,0.1307
same,Log2(fold change) sn-glycerol-3-phosphate,[1]; metabolite sn-glycerol-3-phosphate,0.0813
same,Log2(fold change) succinate/Methylmalonic acid,[1]; metabolite succinate/Methylmalonic acid,-0.0916
same,Log2(fold change) succinyl-CoA/methylmalonyl-CoA,[1]; metabolite succinyl-CoA/methylmalonyl-CoA,0.0000
same,Log2(fold change) taurine,[1]; metabolite taurine,0.1233
same,Log2(fold change) thiamine,[1]; metabolite thiamine,-0.6378
same,Log2(fold change) threonine/homoserine,[1]; metabolite threonine/homoserine,-0.0132
same,Log2(fold change) thymidine,[1]; metabolite thymidine,0.0000
same,Log2(fold changes) thymine,"[1]; metabolite thymine, log2 fold change",0.0000
same,Log2(fold changes) trehalose-6-Phosphate,"[1]; metabolite trehalose-6-Phosphate, log2 fold change",0.0000
same,Log2(fold changes) tryptophan,"[1]; metabolite tryptophan, log2 fold change",-0.6838
same,Log2(fold changes) tyrosine,"[1]; metabolite tyrosine, log2 fold change",0.0515
same,Log2(fold changes) uridine,"[1]; metabolite uridine, log2 fold change",0.0000
same,pIC50,[2],6.61
same,pIC50,"[3]; 3D7, read-out: Early rings Mean IC50 (IC50^8h), 8-h exposure 0–8 hr, 3D7-A10, survival at 60 h",5.65
same,pIC50,"[3]; 3D7, read-out: Early trophozoites Mean IC50 (IC50^8h), 8-h exposure 16–24 hr, 3D7-A10, survival at 60 h",6.28
same,pIC50,"[3]; 3D7, read-out: Late rings Mean IC50 (IC50^8h), 8-h exposure 8–16 hr, 3D7-A10, survival at 60 h",5.90
same,pIC50,"[3]; 3D7, read-out: Late trophozoites Mean IC50 (IC50^8h), 8-h exposure 24–32 hr, 3D7-A10, survival at 60 h",6.14
same,pIC50,"[3]; 3D7, read-out: Schizonts Mean IC50 (IC50^8h), 8-h exposure 32–40 hr, 3D7-A10, survival at 60 h",6.07
